According to PubChem BioAssay (NCI):
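48-hour exposure; five concentrations; linearly interpolated endpoints. Abbreviation: GI50, concentration required for 50% inhibition of growth. Definition used: TGI = concentration required for complete inhibition of growth.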

What was measured:
Assay in all cases: NCI tumour cell line growth inhibition, 48 h
[1] = test system: OVCAR-4 ovarian
[2] = test system: NCI-H522 lung
[3] = test system: OVCAR-8 ovarian
[4] = test system: LOX IMVI melanoma
[5] = test system: RXF 393 renal
[6] = test system: COLO 205 colon
[7] = test system: HCC-2998 colon
[8] = test system: UO-31 renal
[9] = test system: SK-MEL-2 melanoma
[10] = test system: UACC-257 melanoma
[11] = test system: HS 578T breast
[12] = test system: NCI/ADR-RES ovarian
[13] = test system: HOP-62 NSCLC
[14] = test system: MCF7 breast
[15] = test system: CAKI-1 renal
[16] = test system: MDA-MB-231 breast
[17] = test system: U251 CNS
[18] = test system: T-47D breast
[19] = test system: SK-OV-3 ovarian
[20] = test system: HCT-116 colon
[21] = test system: 786-0 renal
[22] = test system: A498 renal
[23] = test system: BT-549 breast
[24] = test system: CCRF-CEM leukemia
[25] = test system: NCI-H460 lung
[26] = test system: EKVX NSCLC
[27] = test system: MALME-3M melanoma
[28] = test system: HCT-15 colon

COc1ccc2c(c1)C(=Nc1ccc(F)c(F)c1F)c1c-2c(Nc2ccc(F)c(F)c2F)nc2ccccc12
GI50 [1]: 27.8 µM
TGI [1]: > 55.6 µM
GI50 [2]: 59.8 µM
TGI [2]: > 100 µM
GI50 [3]: 35.9 µM
TGI [3]: > 78.6 µM
GI50 [4]: > 60.5 µM
TGI [4]: > 100 µM
GI50 [5]: 17.2 µM
TGI [5]: 56.5 µM
GI50 [6]: 38.8 µM
TGI [6]: > 100 µM
GI50 [7]: > 100 µM
TGI [7]: > 100 µM
GI50 [8]: > 89.3 µM
TGI [8]: > 100 µM
GI50 [9]: 23.8 µM
TGI [9]: > 100 µM
GI50 [10]: > 100 µM
TGI [10]: > 100 µM
GI50 [11]: 22 µM
TGI [11]: > 100 µM
GI50 [12]: 37.4 µM
TGI [12]: > 82.8 µM
GI50 [13]: 14.6 µM
TGI [13]: 43.7 µM
GI50 [14]: 44 µM
TGI [14]: > 100 µM
GI50 [15]: > 57.2 µM
TGI [15]: > 100 µM
GI50 [16]: 26.6 µM
TGI [16]: > 60.1 µM
GI50 [17]: 28.2 µM
TGI [17]: > 64.3 µM
GI50 [18]: > 100 µM
TGI [18]: > 100 µM
GI50 [19]: 16.3 µM
TGI [19]: 61.7 µM
GI50 [20]: 31.8 µM
TGI [20]: > 100 µM
GI50 [21]: 27.3 µM
TGI [21]: > 68.7 µM
GI50 [22]: 17.2 µM
TGI [22]: 53.7 µM
GI50 [23]: 36 µM
TGI [23]: > 65.4 µM
GI50 [24]: 46.3 µM
TGI [24]: > 100 µM
GI50 [25]: > 75.5 µM
TGI [25]: > 100 µM
GI50 [26]: > 79.5 µM
TGI [26]: > 100 µM
GI50 [27]: 50.6 µM
TGI [27]: > 100 µM
GI50 [28]: 49 µM
TGI [28]: > 100 µM
